Values quoted from earlier work in PMC6329039 (Molecular Pain, 2019).

Test system: STAT3
Conditions: thermal shift assays ref 33

CN(CC(=O)N(Cc1ccc(C2CCCCC2)cc1)c1ccc(C(=O)O)c(O)c1)S(=O)(=O)c1c(F)c(F)c(F)c(F)c1F [BP-1–102]
binding to and degradation of STAT3: specifically bind to and induce the degradation of STAT3
